The first test concerns the target T1, HCV RdRp (NS5B RNA-dependent RNA polymerase) (Hepatitis C virus genotype 1b, UniProt P26663).
T1 construct: The HCV NS5B protein is the viral RdRp; made in house; host or cells: insect cells infected with recombinant baculovirus
Kind of test: Inhibition of hepatitis C virus RdRp (poly(A)/oligo(U), [3H]UTP incorporation). It is filed as biochemical. The following applies: Tables I-VIII; 20 nM NS5B, 1 hour at 22° C.; read-out: IC 50 (μM), HCV-polymerase. On the procedure:
In initial tests, the compounds were tested to see if they were effective as inhibitors of the RNA-dependent RNA polymerase (RdRp) of hepatitis C virus (HCV). The HCV NS5B protein is the viral RdRp; compounds capable of interfering with the activity of this enzyme are thus expected to block viral replication.
Test for Inhibition of Hepatatis C Virus RdRp
WO96/37619 describes the production of recombinant HCV RdRp from insect cells infected with recombinant baculovirus encoding the enzyme. […] The reference describes a polymerisation assay using poly (A) as a template and oligo (U) as a primer. Incorporation of tritiated UTP is quantified by measuring acid-insoluble radioactivity. The present inventors have employed this assay to screen the various compounds described above as inhibitors of HCV RdRp and other virally encoded polymerases.
Incorporation of radioactive UMP was measured as follows. The standard reaction (100 μl) was carried out in a buffer containing 20 mM tris/HCl pH 7.5, 5 mM MgCl2, 1 mM DTT, 50 mM NaCl, 1 mM EDTA, 2 OU Rnasin (Promega), 0.05% Triton X-100, 1 μCi[^3H] UTP (40 Ci/mmol,NEN), 10 μM UTP and 10 μg/ml poly (A). Oligo (U)12 (1 μg/ml, Genset) was added as a primer. The final NSSB enzyme concentration was 20 nM. After 1 hour incubation at 22° C. the reaction was stopped by adding 100 μl of 20% TCA and applying samples to DE81 filters. The filters were washed thoroughly with 5% TCA containing 1M Na2HPO4/NaH2PO4, pH 7.0, rinsed with water and then ethanol, air dried, and the filter-bound radioactivity was measured in the scintillation counter. By carrying out the reaction in the presence of various concentrations of each of the compounds set out above it was possible to determine IC50 values for each compound with the formula: % residual activity=100/(1+[I]/IC50)^s where [I] is the inhibitor concentration and “s” is the slope of the inhibition curve. Test for Inhibition of Hepatitis B Virus Polymerase
T1 sequence (P26663 2420-3010): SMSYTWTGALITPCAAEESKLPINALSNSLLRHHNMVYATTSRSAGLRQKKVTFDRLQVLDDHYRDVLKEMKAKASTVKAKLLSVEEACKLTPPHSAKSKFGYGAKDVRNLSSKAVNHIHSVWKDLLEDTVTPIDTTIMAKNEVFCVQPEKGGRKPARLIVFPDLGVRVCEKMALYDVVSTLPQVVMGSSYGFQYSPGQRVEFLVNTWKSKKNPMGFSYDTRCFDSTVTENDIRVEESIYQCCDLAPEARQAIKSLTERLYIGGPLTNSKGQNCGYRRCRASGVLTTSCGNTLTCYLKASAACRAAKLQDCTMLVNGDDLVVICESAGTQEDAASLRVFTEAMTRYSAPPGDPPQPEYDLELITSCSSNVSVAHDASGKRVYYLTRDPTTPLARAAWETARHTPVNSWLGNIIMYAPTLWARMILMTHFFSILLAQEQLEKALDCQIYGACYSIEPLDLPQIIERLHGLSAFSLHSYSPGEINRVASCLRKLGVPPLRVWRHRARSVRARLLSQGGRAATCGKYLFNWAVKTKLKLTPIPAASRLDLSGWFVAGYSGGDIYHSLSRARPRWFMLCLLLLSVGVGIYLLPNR
On to `Cc1ccccc1C(=O)C=C(O)C(=O)O` [Example 2], for which the IC50 stood at 3 µM.

For the compound `O=C(O)C(O)=CC(=O)c1cccc(-c2ccccc2)c1` [Example 3], the IC50 was determined as 27.9 µM.

Take `C=CCOc1cccc(C(=O)C=C(O)C(=O)O)c1` [Example 5]: the IC50 was 17 µM.

Consider `O=C(O)C(O)=CC(=O)c1ccccc1C(F)(F)F` [Example 6], for which the IC50 came to 18 µM.

Consider `O=C(O)C(O)=CC(=O)c1ccccc1OCC1CCCCC1` [Example 9], for which the IC50 came to 51 µM.

For the compound `O=C(O)C(O)=CC(=O)c1cccc(OCC2CCCCC2)c1` [Example 10], the IC50 was determined as 20 µM.

On to `O=C(O)C(O)=CC(=O)c1cccc(OC2CCCCC2)c1` [Example 11], for which the IC50 worked out at 7.08 µM.

For the compound `O=C(O)C(O)=CC(=O)c1cccc(NCc2ccccc2)c1` [Example 12], the IC50 amounted to 16.7 µM.

With `N#CCCCOc1cccc(C(=O)C=C(O)C(=O)O)c1` [Example 13], the IC50 worked out at 2.6 µM.

As for `O=C(O)COc1cccc(C(=O)C=C(O)C(=O)O)c1` [Example 14], the IC50 was 26 µM.

For the compound `O=C(O)C(O)=CC(=O)c1cccc(N2CCCC2)c1` [Example 15], the IC50 came out at 83.5 µM.

For `COc1ccccc1C(=O)C=C(O)C(=O)O` [Example 17], the IC50 amounted to 11.6 µM.

Turning to `O=C(O)C(O)=CC(=O)c1cccc(OCCCCn2c(C(F)(F)F)nc3ccccc32)c1` [Example 22], the IC50 worked out at 19 µM.

Consider `N#Cc1ccc(COc2ccccc2C(=O)C=C(O)C(=O)O)cc1` [Example 25], for which the IC50 is 28 µM.

`N#Cc1cccc(COc2ccccc2C(=O)C=C(O)C(=O)O)c1` [Example 26]: the IC50 was 26 µM.

For `N#Cc1cccc(COc2cccc(C(=O)C=C(O)C(=O)O)c2)c1` [Example 28], the IC50 amounted to 6.2 µM.

As for `CCCOc1ccccc1C(=O)C=C(O)C(=O)O` [Example 29], the IC50 was determined as 3.9 µM.

Consider `CCCCCCOc1cccc(C(=O)C=C(O)C(=O)O)c1` [Example 30], for which the IC50 worked out at 15 µM.

On to `CCCCCCCOc1ccccc1C(=O)C=C(O)C(=O)O` [Example 31], for which the IC50 is 18 µM.

In the case of `CC(C)COc1ccccc1C(=O)C=C(O)C(=O)O` [Example 32], the IC50 is 6.1 µM.

Consider `O=C(O)C(O)=CC(=O)c1ccccc1SC1CCCCC1` [Example 33], for which the IC50 came out at 18.2 µM.

`CCCSc1ccccc1C(=O)C=C(O)C(=O)O` [Example 34]: the IC50 stood at 9.6 µM.

Regarding `N#CCCCOc1ccc(OCCCC#N)c(C(=O)C=C(O)C(=O)O)c1` [Example 35], the IC50 amounted to 6.1 µM.

Regarding `O=C(O)C(O)=CC(=O)c1ccccc1Oc1ccc(F)cc1` [Example 37], the IC50 was determined as 18 µM.

`O=C(O)C(O)=CC(=O)c1ccccc1Oc1ccc(Cl)cc1` [Example 38]: the IC50 was 16 µM.

With `Cc1ccc(Oc2ccccc2C(=O)C=C(O)C(=O)O)cc1` [Example 39], the IC50 came to 22 µM.

As to `O=C(O)C(O)=CC(=O)c1cccc(N(Cc2ccccc2)Cc2ccccc2)c1` [Example 41], the IC50 was determined as 28.9 µM.

As to `O=C(O)C(O)=CC(=O)c1ccccc1N(Cc1ccccc1)Cc1ccccc1` [Example 42], the IC50 was found to be 16.6 µM.

In the case of `O=C(O)C(O)=CC(=O)c1cccc(Cc2cccc(Cl)c2)c1` [Example 43], the IC50 was determined as 20 µM.

Consider `O=C(O)C(O)=CC(=O)c1cccc(Oc2ccccc2)c1` [Example 44], for which the IC50 stood at 18.5 µM.

Take `O=C(O)C(O)=CC(=O)c1cccc(Cc2ccc(Cl)cc2)c1` [Example 45]: the IC50 was 12.9 µM.

For `O=C(O)C(O)=CC(=O)c1cccc(Cc2ccc(F)cc2)c1` [Example 46], the IC50 worked out at 30.1 µM.

Turning to `O=C(O)C(O)=CC(=O)c1cccc(C2=CCCc3ccccc32)c1` [Example 47], the IC50 came out at 20.7 µM.

As for `O=C(O)C(O)=CC(=O)c1cccc(Cc2cccc(Br)c2)c1` [Example 48], the IC50 worked out at 22 µM.

As to `O=C(O)C(O)=CC(=O)c1cccc(Cc2cc(Br)cc(Br)c2)c1` [Example 49], the IC50 is 32 µM.

As to `C#CCCCOc1ccccc1C(=O)C=C(O)C(=O)O` [Example 51], the IC50 came out at 1.9 µM.

For the compound `CCCCOc1ccccc1C(=O)C=C(O)C(=O)O` [Example 52], the IC50 was 10 µM.

On to `N#CCCCOc1ccc(Br)cc1C(=O)C=C(O)C(=O)O` [Example 54], for which the IC50 turned out to be 2.3 µM.

Regarding `O=C(O)C(O)=CC(=O)c1ccccc1/C=C/c1ccccc1` [Example 55], the IC50 amounted to 10.8 µM.

Take `N#CCCCOc1ccc(C#CCCCCl)cc1C(=O)C=C(O)C(=O)O` [Example 56]: the IC50 is 23.6 µM.

With `N#CCCCOc1ccc(/C=C/c2ccccc2)cc1C(=O)C=C(O)C(=O)O` [Example 57], the IC50 stood at 2.1 µM.

For the compound `N#CCCCOc1ccc(-c2ccccc2)cc1C(=O)C=C(O)C(=O)O` [Example 58], the IC50 amounted to 13.6 µM.

As for `CCCCCOc1ccccc1C(=O)C=C(O)C(=O)O` [Example 59], the IC50 was 25.3 µM.

`COc1cccc(C(=O)C=C(O)C(=O)O)c1` [Example 60]: the IC50 came to 40 µM.

As to `CC(C)(C)OC(=O)Nc1cccc(C(=O)C=C(O)C(=O)O)c1` [Example 61], the IC50 is 31 µM.

As for `Nc1cccc(C(=O)C=C(O)C(=O)O)c1` [Example 62], the IC50 turned out to be 10 µM.

In the case of `N#CCCCOc1ccc(N)cc1C(=O)C=C(O)C(=O)O` [Example 63], the IC50 is 1.7 µM.

Regarding `N#Cc1ccccc1COc1cccc(C(=O)C=C(O)C(=O)O)c1` [Example 64], the IC50 was determined as 0.23 µM.

For `N#Cc1ccccc1COc1ccccc1C(=O)C=C(O)C(=O)O` [Example 65], the IC50 came out at 45 µM.

`O=C(O)C(O)=CC(=O)c1cccc(NC(=O)c2ccccc2)c1` [Example 66]: the IC50 worked out at 11 µM.

With `O=C(O)C(O)=CC(=O)c1cccc(NS(=O)(=O)c2ccccc2)c1` [Example 67], the IC50 came to 16 µM.

Turning to `N#Cc1ccc(C(=O)Nc2cccc(C(=O)C=C(O)C(=O)O)c2)cc1` [Example 68], the IC50 stood at 30 µM.

Consider `N#CC(CCOc1ccccc1C(=O)C=C(O)C(=O)O)(c1ccccc1)c1ccccc1` [Example 69], for which the IC50 came out at 14 µM.

As for `N#Cc1cccc(C(=O)Nc2cccc(C(=O)C=C(O)C(=O)O)c2)c1` [Example 70], the IC50 was 9.2 µM.

As to `O=C(O)C(O)=CC(=O)c1cccc(OCc2cccnc2)c1` [Example 71], the IC50 is 10.6 µM.

Consider `N#Cc1ccccc1S(=O)(=O)Nc1cccc(C(=O)C=C(O)C(=O)O)c1` [Example 72], for which the IC50 came out at 0.48 µM.

Regarding `O=C(O)C(O)=CC(=O)c1cccc(OCc2ccccn2)c1` [Example 73], the IC50 was found to be 5.6 µM.

In the case of `N#Cc1ccc(S(=O)(=O)Nc2cccc(C(=O)C=C(O)C(=O)O)c2)cc1` [Example 74], the IC50 worked out at 3.6 µM.

In the case of `CS(=O)(=O)Nc1cccc(C(=O)C=C(O)C(=O)O)c1` [Example 75], the IC50 is 19.2 µM.

In the case of `O=C(O)C(O)=CC(=O)c1cccc(NS(=O)(=O)c2ccccc2Br)c1` [Example 77], the IC50 worked out at 4.8 µM.

Consider `O=C(O)C(O)=CC(=O)c1cccc(NCc2cccc(C(=O)O)c2)c1` [Example 79], for which the IC50 is 6 µM.

Take `O=C(Nc1ccccc1)Nc1cccc(C(=O)C=C(O)C(=O)O)c1` [Example 80]: the IC50 was 3 µM.

Take `O=C(Nc1cccc(C(=O)C=C(O)C(=O)O)c1)OCc1ccccc1` [Example 81]: the IC50 was determined as 1.4 µM.

Turning to `CC(C)(C)OC(=O)c1sccc1COc1cccc(C(=O)C=C(O)C(=O)O)c1` [Example 82], the IC50 came to 19 µM.

Regarding `O=C(O)C(O)=CC(=O)c1cccc(OC/C=C/c2ccccc2)c1` [Example 83], the IC50 came to 9.4 µM.

As for `O=C(O)C(O)=CC(=O)c1cccc(OCc2ccsc2C(=O)O)c1` [Example 84], the IC50 came out at 0.95 µM.

For `O=C(O)C(O)=CC(=O)c1cccc(NC(=O)c2ccccc2Cl)c1` [Example 85], the IC50 turned out to be 13 µM.

As for `Cc1cccc(COc2cccc(C(=O)C=C(O)C(=O)O)c2)c1F` [Example 86], the IC50 stood at 2.05 µM.

For `O=C(O)C(O)=CC(=O)c1cccc(OCc2ccc(F)cc2Cl)c1` [Example 87], the IC50 is 2.3 µM.

Consider `O=C(O)C(O)=CC(=O)c1cccc(NS(=O)(=O)c2cc(Cl)ccc2Cl)c1` [Example 88], for which the IC50 turned out to be 0.7 µM.

Take `O=C(O)C(O)=CC(=O)c1cccc(OCc2ccccc2Br)c1` [Example 89]: the IC50 came out at 3.3 µM.

With `O=C(O)C(O)=CC(=O)c1cccc(OCc2ccccc2C(=O)O)c1` [Example 90], the IC50 was 1.8 µM.

The same test, now with this note: Tables IXa-IXc; unit inferred; read-out: HCV (IC50).
As to `O=C(O)C(O)=CC(=O)c1cccc(Cc2cc(Br)cc(Br)c2)c1` [Example 49], the IC50 stood at 32 µM.

Regarding `N#Cc1ccccc1COc1cccc(C(=O)C=C(O)C(=O)O)c1` [Example 64], the IC50 turned out to be 0.23 µM.

Regarding `O=C(O)C(O)=CC(=O)c1cccc(NC(=O)c2ccccc2)c1` [Example 66], the IC50 is 11 µM.

In the case of `N#Cc1ccccc1S(=O)(=O)Nc1cccc(C(=O)C=C(O)C(=O)O)c1` [Example 72], the IC50 worked out at 0.48 µM.

As for `O=C(Nc1ccccc1)Nc1cccc(C(=O)C=C(O)C(=O)O)c1` [Example 80], the IC50 was 3 µM.

In the case of `O=C(O)C(O)=CC(=O)c1cccc(OCc2ccsc2C(=O)O)c1` [Example 84], the IC50 stood at 0.95 µM.

As for `O=C(O)C(O)=CC(=O)c1cccc(NS(=O)(=O)c2cc(Cl)ccc2Cl)c1` [Example 88], the IC50 came to 0.7 µM.

`O=C(O)C(O)=CC(=O)c1cccc(OCc2ccccc2C(=O)O)c1` [Example 90]: the IC50 is 1.8 µM.

These data come from patent US7022736B2, “Enzyme inhibitors” (Istituto Di Ricerche Di Biologia Molecolare P Angeletti SpA, priority 1998, dated 2006).
